Patent US6197535A, “Methods for purifying and assaying a conus γ-carboxylase” (University of Utah Research Foundation, priority 1999, dated 2001)

System: Conus γ-glutamyl carboxylase (Conus radiatus venom duct microsomes)
Type: biochemical
Conditions: for Km: read-out: apparent Km

| Substance | Km | enhancement of carboxylation of E.Con-G | enhancement of carboxylation of FLEEL | inhibition of carboxylation of -10.Pro-E.Con-G | IC50 (read-out: apparent IC50) |
| --- | --- | --- | --- | --- | --- |
| GEEELQENQELIREKSN-NH2 [E.Con-G] | 3400 µM |  |  |  |  |
| GKDRLTQMKRILKQRGNKAR [Pro (-20 to -1)] |  | ~ 25% | 40% | is an inhibitor | 490 µM |
| GKDRLTQMKRILKQRGNKAR-GEEELY-NH2 [wild type substrate] | 40 µM |  |  |  |  |
